# Reference: ChEMBL document CHEMBL6120977, “Structure-Affinity-Pharmacokinetics Relationships of Novel 18F-Labeled 1,4-Diazepane Derivatives for Orexin 1 Receptor Imaging” (J Med Chem, 2024)
# Assays:
# [1] = species: Homo sapiens; test: Selectivity ratio of IC50 for recombinant human OX2R extracted from HEK293T cell membrane to IC50 for recombinant human OX1R extracted from HEK293T cell membrane
# [2] = target: T1, Orexin receptor type 2 (Homo sapiens, UniProt O43614); test: Displacement of [3H]EMPA from recombinant human OX2R extracted from HEK293T membrane by radioligand binding assay; format: cell membranes
# T1 sequence (O43614 whole entry): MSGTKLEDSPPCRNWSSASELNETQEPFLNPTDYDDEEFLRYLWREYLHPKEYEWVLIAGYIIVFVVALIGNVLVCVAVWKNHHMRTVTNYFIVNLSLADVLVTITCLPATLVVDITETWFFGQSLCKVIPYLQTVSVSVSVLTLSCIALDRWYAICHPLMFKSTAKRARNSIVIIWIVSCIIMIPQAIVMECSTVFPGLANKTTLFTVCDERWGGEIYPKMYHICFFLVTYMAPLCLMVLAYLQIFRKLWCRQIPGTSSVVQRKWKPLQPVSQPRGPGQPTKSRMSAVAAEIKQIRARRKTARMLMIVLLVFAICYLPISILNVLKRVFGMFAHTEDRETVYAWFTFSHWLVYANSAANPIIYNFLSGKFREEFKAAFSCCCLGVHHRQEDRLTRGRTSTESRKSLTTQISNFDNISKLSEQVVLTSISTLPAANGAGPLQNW
# [3] = target: T2, Orexin/Hypocretin receptor type 1 (Homo sapiens, UniProt O43613); test: Displacement of [3H]SB-674042 from recombinant human OX1R extracted from HEK293T membrane by radioligand binding assay; format: cell membranes
# T2 sequence (O43613 whole entry): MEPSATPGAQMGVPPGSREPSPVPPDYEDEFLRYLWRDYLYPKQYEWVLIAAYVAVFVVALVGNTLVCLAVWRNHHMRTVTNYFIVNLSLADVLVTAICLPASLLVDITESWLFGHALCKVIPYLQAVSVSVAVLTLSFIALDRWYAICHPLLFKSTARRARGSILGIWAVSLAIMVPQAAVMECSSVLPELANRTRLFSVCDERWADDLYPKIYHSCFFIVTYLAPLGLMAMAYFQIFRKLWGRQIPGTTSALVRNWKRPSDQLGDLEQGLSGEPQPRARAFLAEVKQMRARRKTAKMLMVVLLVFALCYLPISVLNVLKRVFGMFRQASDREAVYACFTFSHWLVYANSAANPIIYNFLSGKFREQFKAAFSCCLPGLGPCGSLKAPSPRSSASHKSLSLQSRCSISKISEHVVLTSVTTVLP
# [4] = Biodistribution in male ddY mouse stomach administered intravenously and measured per organ at 2 mins postinjection by gamma counter analysis; format: ADME, organism-based; conditions: in vivo, iv
# [5] = Biodistribution in male ddY mouse pancreas administered intravenously and measured at 2 mins postinjection by gamma counter analysis; format: ADME, organism-based; conditions: in vivo, iv
# [6] = Biodistribution in male ddY mouse lung administered intravenously and measured at 10 mins postinjection by gamma counter analysis; format: ADME, organism-based; conditions: in vivo, iv
# [7] = Biodistribution in male ddY mouse intestine administered intravenously and measured at 60 mins postinjection by gamma counter analysis; format: ADME, organism-based; conditions: in vivo, iv, 1 h
# [8] = Biodistribution in male ddY mouse intestine administered intravenously and measured at 2 mins postinjection by gamma counter analysis; format: ADME, organism-based; conditions: in vivo, iv
# [9] = Biodistribution in male ddY mouse brain administered intravenously and measured at 30 mins postinjection by gamma counter analysis; format: ADME, organism-based; conditions: in vivo, iv, 0.5 h
# [10] = Biodistribution in male ddY mouse spleen administered intravenously and measured at 2 mins postinjection by gamma counter analysis; format: ADME, organism-based; conditions: in vivo, iv
# [11] = Biodistribution in male ddY mouse heart administered intravenously and measured at 30 mins postinjection by gamma counter analysis; format: ADME, organism-based; conditions: in vivo, iv, 0.5 h
# [12] = Biodistribution in male ddY mouse stomach administered intravenously and measured per organ at 10 mins postinjection by gamma counter analysis; format: ADME, organism-based; conditions: in vivo, iv
# [13] = Biodistribution in male ddY mouse blood administered intravenously and measured at 2 mins postinjection by gamma counter analysis; format: ADME, organism-based; conditions: in vivo, iv
# [14] = Biodistribution in male ddY mouse heart administered intravenously and measured at 2 mins postinjection by gamma counter analysis; format: ADME, organism-based; conditions: in vivo, iv
# [15] = Biodistribution in male ddY mouse spleen administered intravenously and measured at 60 mins postinjection by gamma counter analysis; format: ADME, organism-based; conditions: in vivo, iv, 1 h
# [16] = Biodistribution in male ddY mouse liver administered intravenously and measured at 10 mins postinjection by gamma counter analysis; format: ADME, organism-based; conditions: in vivo, iv
# [17] = Biodistribution in male ddY mouse bone administered intravenously and measured at 2 mins postinjection by gamma counter analysis; format: ADME, organism-based, Bone element; conditions: in vivo, iv
# [18] = Biodistribution in male ddY mouse brain administered intravenously and measured at 10 mins postinjection by gamma counter analysis; format: ADME, organism-based; conditions: in vivo, iv
# [19] = Biodistribution in male ddY mouse liver administered intravenously and measured at 60 mins postinjection by gamma counter analysis; format: ADME, organism-based; conditions: in vivo, iv, 1 h
# [20] = Biodistribution in male ddY mouse pancreas administered intravenously and measured at 30 mins postinjection by gamma counter analysis; format: ADME, organism-based; conditions: in vivo, iv, 0.5 h
# [21] = Biodistribution in male ddY mouse pancreas administered intravenously and measured at 10 mins postinjection by gamma counter analysis; format: ADME, organism-based; conditions: in vivo, iv
# [22] = Biodistribution in male ddY mouse lung administered intravenously and measured at 2 mins postinjection by gamma counter analysis; format: ADME, organism-based; conditions: in vivo, iv
# [23] = Biodistribution in male ddY mouse blood administered intravenously and measured at 30 mins postinjection by gamma counter analysis; format: ADME, organism-based; conditions: in vivo, iv, 0.5 h
# [24] = Biodistribution in male ddY mouse bone administered intravenously and measured at 30 mins postinjection by gamma counter analysis; format: ADME, organism-based, Bone element; conditions: in vivo, iv, 0.5 h
# [25] = Biodistribution in male ddY mouse kidney administered intravenously and measured at 30 mins postinjection by gamma counter analysis; format: ADME, organism-based; conditions: in vivo, iv, 0.5 h
# [26] = Biodistribution in male ddY mouse blood administered intravenously and measured at 10 mins postinjection by gamma counter analysis; format: ADME, organism-based; conditions: in vivo, iv
# [27] = Biodistribution in male ddY mouse intestine administered intravenously and measured at 30 mins postinjection by gamma counter analysis; format: ADME, organism-based; conditions: in vivo, iv, 0.5 h
# [28] = Biodistribution in male ddY mouse bone administered intravenously and measured at 60 mins postinjection by gamma counter analysis; format: ADME, organism-based, Bone element; conditions: in vivo, iv, 1 h
# [29] = Biodistribution in male ddY mouse heart administered intravenously and measured at 60 mins postinjection by gamma counter analysis; format: ADME, organism-based; conditions: in vivo, iv, 1 h
# [30] = Biodistribution in male ddY mouse kidney administered intravenously and measured at 10 mins postinjection by gamma counter analysis; format: ADME, organism-based; conditions: in vivo, iv
# [31] = Biodistribution in male ddY mouse stomach administered intravenously and measured per organ at 30 mins postinjection by gamma counter analysis; format: ADME, organism-based; conditions: in vivo, iv, 0.5 h
# [32] = Biodistribution in male ddY mouse heart administered intravenously and measured at 10 mins postinjection by gamma counter analysis; format: ADME, organism-based; conditions: in vivo, iv
# [33] = Biodistribution in male ddY mouse intestine administered intravenously and measured at 10 mins postinjection by gamma counter analysis; format: ADME, organism-based; conditions: in vivo, iv
# [34] = Biodistribution in male ddY mouse lung administered intravenously and measured at 30 mins postinjection by gamma counter analysis; format: ADME, organism-based; conditions: in vivo, iv, 0.5 h
# [35] = Biodistribution in male ddY mouse liver administered intravenously and measured at 30 mins postinjection by gamma counter analysis; format: ADME, organism-based; conditions: in vivo, iv, 0.5 h
# [36] = Biodistribution in male ddY mouse kidney administered intravenously and measured at 60 mins postinjection by gamma counter analysis; format: ADME, organism-based; conditions: in vivo, iv, 1 h
# [37] = Biodistribution in male ddY mouse blood administered intravenously and measured at 60 mins postinjection by gamma counter analysis; format: ADME, organism-based; conditions: in vivo, iv, 1 h
# [38] = Biodistribution in male ddY mouse lung administered intravenously and measured at 60 mins postinjection by gamma counter analysis; format: ADME, organism-based; conditions: in vivo, iv, 1 h
# [39] = Biodistribution in male ddY mouse brain administered intravenously and measured at 2 mins postinjection by gamma counter analysis; format: ADME, organism-based; conditions: in vivo, iv
# [40] = Biodistribution in male ddY mouse spleen administered intravenously and measured at 30 mins postinjection by gamma counter analysis; format: ADME, organism-based; conditions: in vivo, iv, 0.5 h
# [41] = Biodistribution in male ddY mouse liver administered intravenously and measured at 2 mins postinjection by gamma counter analysis; format: ADME, organism-based; conditions: in vivo, iv
# [42] = Biodistribution in male ddY mouse kidney administered intravenously and measured at 2 mins postinjection by gamma counter analysis; format: ADME, organism-based; conditions: in vivo, iv
# [43] = Biodistribution in male ddY mouse brain administered intravenously and measured at 60 mins postinjection by gamma counter analysis; format: ADME, organism-based; conditions: in vivo, iv, 1 h
# [44] = Biodistribution in male ddY mouse stomach administered intravenously and measured per organ at 60 mins postinjection by gamma counter analysis; format: ADME, organism-based; conditions: in vivo, iv, 1 h
# [45] = Biodistribution in male ddY mouse bone administered intravenously and measured at 10 mins postinjection by gamma counter analysis; format: ADME, organism-based, Bone element; conditions: in vivo, iv
# [46] = Biodistribution in male ddY mouse spleen administered intravenously and measured at 10 mins postinjection by gamma counter analysis; format: ADME, organism-based; conditions: in vivo, iv
# [47] = Biodistribution in male ddY mouse pancreas administered intravenously and measured at 60 mins postinjection by gamma counter analysis; format: ADME, organism-based; conditions: in vivo, iv, 1 h
smiles,measurement,setting,value
CC[C@H](C)[C@H]1CN(c2nc3cc(Cl)ccc3o2)CCCN1C(=O)c1cc(C)ccc1-n1nccn1,Ratio IC50,[1],75
same,IC50,[2],54 nM
same,IC50,[3],0.72 nM
C[C@H]1CN(c2nc3ccc(F)cc3s2)CCCN1C(=O)c1cc([18F])ccc1-n1nccn1,Drug uptake,[4],1.03 %ID
same,Drug uptake,[5],5.3 % ID/g
same,Drug uptake,[6],3.39 % ID/g
same,Drug uptake,[7],30.5 % ID/g
same,Drug uptake,[8],2.93 % ID/g
same,Drug uptake,[9],0.29 % ID/g
same,Drug uptake,[10],2.15 % ID/g
same,Drug uptake,[11],0.67 % ID/g
same,Drug uptake,[12],0.98 %ID
same,Drug uptake,[13],4.79 % ID/g
same,Drug uptake,[14],6.04 % ID/g
same,Drug uptake,[15],0.21 % ID/g
same,Drug uptake,[16],27.5 % ID/g
same,Drug uptake,[17],1.5 % ID/g
same,Drug uptake,[18],1.33 % ID/g
same,Drug uptake,[19],12.6 % ID/g
same,Drug uptake,[20],0.56 % ID/g
same,Drug uptake,[21],2.88 % ID/g
same,Drug uptake,[22],6 % ID/g
same,Drug uptake,[23],1.1 % ID/g
same,Drug uptake,[24],0.76 % ID/g
same,Drug uptake,[25],2.32 % ID/g
same,Drug uptake,[26],3.05 % ID/g
same,Drug uptake,[27],15.4 % ID/g
same,Drug uptake,[28],1.24 % ID/g
same,Drug uptake,[29],0.42 % ID/g
same,Drug uptake,[30],4.37 % ID/g
same,Drug uptake,[31],1.18 %ID
same,Drug uptake,[32],2.48 % ID/g
same,Drug uptake,[33],8.38 % ID/g
same,Drug uptake,[34],1.11 % ID/g
same,Drug uptake,[35],20.4 % ID/g
same,Drug uptake,[36],0.88 % ID/g
same,Drug uptake,[37],0.55 % ID/g
same,Drug uptake,[38],0.61 % ID/g
same,Drug uptake,[39],2.64 % ID/g
same,Drug uptake,[40],0.42 % ID/g
same,Drug uptake,[41],11.5 % ID/g
same,Drug uptake,[42],7.83 % ID/g
same,Drug uptake,[43],0.09 % ID/g
same,Drug uptake,[44],2.13 %ID
same,Drug uptake,[45],1.18 % ID/g
same,Drug uptake,[46],1.77 % ID/g
same,Drug uptake,[47],0.36 % ID/g
